# Laboratory results reported in ChEMBL document CHEMBL2028040, “Malaria Box”.
# Key:
# Plasmodium falciparum [1] = assay: MMV: Inhibition of Plasmodium falciparum K1 (EC50).; format: functional, organism-based
# Trypanosoma cruzi = assay: MMV: Inhibition of Trypanosoma cruzi (Tulahuen C4 LacZ) (Chagas in vitro).; format: functional, organism-based
# Plasmodium falciparum [2] = assay: MMV: Inhibition of Plasmodium falciparum 3D7 (EC50).; format: functional, organism-based
# [3] = MMV: Cytotoxicity against human fibroblasts (MRC-5) cells.; conditions: MRC-5 cells (human fibroblasts)
# Leishmania infantum = assay: MMV: Inhibition of Leishmania infantum (MHOM/MA/BE/67) in vitro.; format: functional, organism-based
# Plasmodium falciparum [4] = assay: MMV: Inhibition of Plasmodium falciparum 3D7 at 5uM compound concentration.; format: functional
# [5] = tested on: Trypanosoma brucei rhodesiense; assay: MMV: Inhibition of Trypanosoma brucei rhodesiense (STIB 900) (HAT in vitro).; format: functional, organism-based
# [6] = tested on: Trypanosoma brucei brucei; assay: MMV: Inhibition of Trypanosoma brucei brucei (Squib 427) (HAT in vitro).; format: functional, organism-based
Compound,EC50 (Plasmodium falciparum [1]),IC50 (Trypanosoma cruzi),EC50 (Plasmodium falciparum [2]),IC50 [3],IC50 (Leishmania infantum),inhibition at 5 µM (Plasmodium falciparum [4]),IC50 [5],IC50 [6]
CN1CCN(c2ccc(Nc3c4ccccc4nc4ccccc34)cc2)CC1,0.487 µM,1 µM,0.142 µM,10.9 µM,4.06 µM,97%,0.311 µM,1.03 µM
CN(C)CCCNc1c2ccccc2nc2ccccc12,1.56 µM,1 µM,0.235 µM,2.86 µM,1.01 µM,95%,< 0.125 µM,< 0.125 µM
Cc1ccc(Nc2nc(-c3ccccn3)cs2)cc1,0.0822 µM,0.281 µM,0.35 µM,–,5.38 µM,79%,14.8 µM,13.4 µM
Cc1cc(NCCN2CCCCC2)c2ccc3ccccc3c2n1,0.569 µM,3.27 µM,0.3 µM,16.1 µM,0.841 µM,99%,1 µM,0.97 µM
CCC(C)NCC(O)(c1ccc(Cl)cc1)c1ccc(Cl)cc1 (configuration not stated),0.398 µM,15 µM,–,> 32 µM,16 µM,98%,4.03 µM,4.1 µM
COc1ccc(CN2CCCC(C(=O)c3ccc(C(F)(F)F)cc3)C2)c(O)c1 (configuration not stated),0.728 µM,> 32 µM,–,> 32 µM,> 32 µM,97%,> 32 µM,> 32 µM
COc1ccc2nc(N)nc(C)c2c1,0.3 µM,> 32 µM,–,> 32 µM,> 32 µM,63%,16.3 µM,18.4 µM
Oc1ccc(-c2nc(-c3ccc4oc5ccc(-c6[nH]c(-c7ccc(O)cc7)nc6-c6ccccc6)cc5c4c3)c(-c3ccccc3)[nH]2)cc1,0.285 µM,4.91 µM,0.326 µM,15.2 µM,4 µM,98%,2.75 µM,3.38 µM
Cc1ccnc(NC(c2cccc(OCc3ccccc3)c2)c2ccc3cccnc3c2O)c1 (configuration not stated),1.02 µM,1.05 µM,1.02 µM,2 µM,4.06 µM,97%,1 µM,1.2 µM
COc1ccc(NC(=O)C2c3ccccc3C(=O)N(CC(C)C)C2c2cccs2)cc1Cl (configuration not stated),0.0508 µM,> 32 µM,0.0202 µM,> 32 µM,> 32 µM,100%,> 32 µM,> 32 µM
CCOc1cc2c(cc1OCC)C(c1cc(Cl)ccc1O)NCC2 (configuration not stated),0.206 µM,> 32 µM,0.746 µM,> 32 µM,> 32 µM,98%,1.3 µM,3 µM
CCOC(=O)c1cnc2c(C)cccc2c1Nc1ccc(C(C)=O)cc1,0.712 µM,> 32 µM,0.314 µM,> 32 µM,> 32 µM,94%,> 32 µM,> 32 µM
CCOc1cc2c(cc1OCC)C(c1cc(C)c(O)c(C)c1)NCC2 (configuration not stated),0.168 µM,> 32 µM,0.683 µM,> 32 µM,17.3 µM,97%,4.06 µM,12.9 µM
Cc1ccc(C2CC(C(F)(F)F)n3nc(C(=O)N4CCN(C(c5ccccc5)c5ccccc5)CC4)cc3N2)cc1 (configuration not stated),1.61 µM,16.6 µM,0.454 µM,> 32 µM,16.2 µM,98%,4.11 µM,16.5 µM
CCc1ccc(CNCC(O)c2ccccc2)cc1 (configuration not stated),0.65 µM,> 32 µM,–,> 32 µM,25.4 µM,97%,4.03 µM,13.3 µM
CC(C)c1ccc(CNCC(O)c2ccccc2)cc1 (configuration not stated),0.456 µM,10.6 µM,1.26 µM,13 µM,10.2 µM,96%,1.01 µM,1 µM
CCOc1cc2c(cc1OCC)C(c1cc(Cl)c(O)c(OCC)c1)NCC2 (configuration not stated),0.651 µM,> 32 µM,1.33 µM,> 32 µM,17.3 µM,96%,4.61 µM,11 µM
OC(CNC1CCCC1)Cn1c2ccccc2c2ccccc21 (configuration not stated),0.239 µM,14 µM,0.66 µM,18.8 µM,5.38 µM,97%,1.01 µM,1.02 µM
CCc1ccc(Nc2cc(C)c3ccc(O)cc3n2)cc1,0.0161 µM,3.72 µM,0.194 µM,7.77 µM,4.32 µM,98%,11.9 µM,12.2 µM

Compound,EC50 (Plasmodium falciparum [1]),IC50 (Trypanosoma cruzi),EC50 (Plasmodium falciparum [2]),IC50 [3],IC50 (Leishmania infantum),inhibition at 5 µM (Plasmodium falciparum [4]),IC50 [5],IC50 [6]
CC(C)(C)CC(C)(C)NCC(O)COc1ccc2c(c1)CCC2 (configuration not stated),1.08 µM,15.7 µM,–,26.1 µM,4.76 µM,78%,1.02 µM,3.49 µM
CCCCCCn1c(=N)n(CC(O)COc2cccc(C)c2)c2ccccc21 (configuration not stated),0.7 µM,3.78 µM,1.14 µM,4 µM,2.54 µM,98%,0.942 µM,1.01 µM
CC(C)OCc1cc(CN2CCN(c3cccc(Cl)c3)CC2)c(O)c2ncccc12,1.14 µM,0.234 µM,0.697 µM,1.17 µM,1.19 µM,98%,0.352 µM,1 µM
O=C(Nc1nc(-c2ccccn2)cs1)c1ccccc1Br,1.58 µM,0.26 µM,1.36 µM,–,1.59 µM,97%,0.376 µM,1.04 µM
COc1ccc(-c2cc(=O)oc3c4c(ccc23)OCN(Cc2ccc(F)cc2)C4)cc1,0.294 µM,13.2 µM,0.735 µM,> 32 µM,5.38 µM,96%,11 µM,15.8 µM
CSc1ccccc1C(=O)Nc1nc(-c2ccccn2)cs1,0.562 µM,0.25 µM,0.206 µM,2.78 µM,0.336 µM,98%,0.272 µM,0.931 µM
CCOC(=O)C1(Cc2ccccc2)CCN(Cc2cccc(OC)c2O)CC1,1 µM,17.1 µM,–,> 32 µM,> 32 µM,95%,15.3 µM,16.7 µM
CCCOCc1cc(CN2CCN(c3cccc(Cl)c3)CC2)c(O)c2ncccc12,0.362 µM,0.954 µM,0.407 µM,1.67 µM,1.59 µM,97%,0.972 µM,1.02 µM
CCOc1ccc2c(c1)CN(Cc1ccc(Cl)cc1)CO2,0.184 µM,> 32 µM,0.439 µM,> 32 µM,> 32 µM,97%,11 µM,7 µM
CC(C)(C)c1ccc2c(c1)CN(Cc1ccc(Cl)cc1)CO2,0.107 µM,17.7 µM,0.362 µM,> 32 µM,> 32 µM,98%,5.04 µM,10.1 µM
CCCCC(O)(c1ccc(Cl)cc1)C(CN1CCOCC1)c1ccc(Cl)cc1 (configuration not stated),1.53 µM,14.3 µM,1.38 µM,> 32 µM,10.2 µM,98%,4.32 µM,3.91 µM
COc1ccc(C(=O)NC(c2ccccc2Cl)c2cc(Cl)c3cccnc3c2O)cc1 (configuration not stated),0.703 µM,> 32 µM,–,> 32 µM,> 32 µM,96%,> 32 µM,> 32 µM
OC(CNCc1ccccc1)Cn1c2ccccc2c2ccccc21 (configuration not stated),0.86 µM,4.32 µM,1.08 µM,16.1 µM,4 µM,95%,0.252 µM,0.851 µM
Oc1ccc(Br)cc1CN1CCN(Cc2ccc(Cl)cc2)CC1,0.899 µM,8.28 µM,–,> 32 µM,> 32 µM,97%,14.9 µM,> 32 µM
CCOc1c(Cl)cc(CNC(C)C(O)c2ccccc2)cc1OC (configuration not stated),0.706 µM,> 32 µM,–,> 32 µM,16.6 µM,98%,4.09 µM,9.51 µM
COc1ccc(C2Sc3ccccc3N=C3C2=C(O)c2ccccc23)cc1 (configuration not stated),1.93 µM,4.51 µM,0.845 µM,> 32 µM,4.76 µM,96%,3.54 µM,4 µM
CC1CCCCN1CCCNC(=O)c1ccc2c(c1)sc1nc(-c3ccc(F)cc3)cn12 (configuration not stated),1.13 µM,4.14 µM,0.648 µM,10.4 µM,1.08 µM,98%,1.19 µM,3.79 µM
COc1ccc(NC(=O)C2c3ccccc3C(=O)N(CC(C)C)C2c2cccs2)cc1 (configuration not stated),0.0739 µM,> 32 µM,0.0367 µM,> 32 µM,> 32 µM,100%,4.32 µM,16.1 µM
Cc1ccc(S(=O)(=O)c2c(COC(=O)c3cccc(C)c3)c(-c3ccccc3)nn2C)cc1,0.776 µM,23.6 µM,–,> 32 µM,17.3 µM,95%,16.5 µM,16.3 µM
